In ChEMBL document CHEMBL3885861, “Open TG-GATES”:

Species: Rattus norvegicus
Experiment: Open TG-GATES - Regimen: Daily Repeat
Format: toxicity, organism-based, Sprague-Dawley
Parameters: regimen Daily Repeat, gender Male, age 6 weeks
Details: in vivo, po, route gavage; for APTT / Bas / Eos / Fbg / Hb / Ht / Lym / MCH / MCHC / MCV / Mono / Neu / PT / Plat / RBC / Ret / WBC: tissue Blood; for KIDNEY_L / KIDNEY_R / KIDNEY_TOTAL: tissue Kidney; for LIVER: tissue Liver; for A/G / ALP / ALT / AST / BUN / CRE / Ca / Cl / DBIL / GLC / IP / K / LDH / Na / PL / RALB / TBIL / TC / TG / TP / gamma-GTP: tissue Plasma
[1] = 1 mg/kg, […], dose level Middle, time 14 day
[2] = 1 mg/kg, […], dose level Middle, time 28 day
[3] = 1 mg/kg, […], dose level Middle, time 7 day
[4] = 3 mg/kg, 72 h, dose level High, time 3 day
[5] = 3 mg/kg, […], dose level High, time 7 day
[6] = 3 mg/kg, […], dose level High, time 14 day

Compound: CN1C(C(=O)Nc2ccccn2)=C(O)c2sc(Cl)cc2S1(=O)=O [LORNOXICAM]
- TERMINAL_BW [1]: 307.1 g
- TERMINAL_BW [2]: 392.3 g
- APTT [3]: 18.4 s
- Bas [3]: 0.8%
- Eos [3]: 1%
- Fbg [3]: 239.8 mg/dL
- Hb [3]: 12.9 g/dL
- Ht [3]: 38.3%
- Lym [3]: 71.6%
- MCH [3]: 20.9 pg
- MCHC [3]: 33.6%
- MCV [3]: 62.1 fL
- Mono [3]: 2.8%
- Neu [3]: 23.6%
- PT [3]: 11.5 s
- Plat [3]: 139.1 x10_4/uL
- RBC [3]: 617 x10_4/ul
- Ret [3]: 5.7%
- WBC [3]: 135.6 x10_2/uL
- APTT [1]: 20.3 s
- Bas [1]: 0.8%
- Eos [1]: 0.8%
- Fbg [1]: 291.6 mg/dL
- Hb [1]: 12.9 g/dL
- Ht [1]: 38.8%
- Lym [1]: 62.2%
- MCH [1]: 19.8 pg
- MCHC [1]: 33%
- MCV [1]: 59.9 fL
- Mono [1]: 3.8%
- Neu [1]: 31.8%
- PT [1]: 11.4 s
- Plat [1]: 151.7 x10_4/uL
- RBC [1]: 648 x10_4/ul
- Ret [1]: 5.7%
- WBC [1]: 137.4 x10_2/uL
- APTT [2]: 18.9 s
- Bas [2]: 0.8%
- Eos [2]: 1%
- Fbg [2]: 247.2 mg/dL
- Hb [2]: 15.2 g/dL
- Ht [2]: 44.2%
- Lym [2]: 71%
- MCH [2]: 19.6 pg
- MCHC [2]: 34.2%
- MCV [2]: 57.1 fL
- Mono [2]: 2.5%
- Neu [2]: 24%
- PT [2]: 11.7 s
- Plat [2]: 115.1 x10_4/uL
- RBC [2]: 775.8 x10_4/ul
- Ret [2]: 2.8%
- WBC [2]: 161.4 x10_2/uL
- KIDNEY_L [3]: 1.3 g
- KIDNEY_R [3]: 1.3 g
- KIDNEY_TOTAL [3]: 2.6 g
- KIDNEY_L [1]: 1.5 g
- KIDNEY_R [1]: 1.4 g
- KIDNEY_TOTAL [1]: 2.9 g
- KIDNEY_L [2]: 1.5 g
- KIDNEY_R [2]: 1.5 g
- KIDNEY_TOTAL [2]: 3.1 g
- LIVER [3]: 12.7 g
- LIVER [1]: 12.3 g
- LIVER [2]: 15.1 g
- A/G [3]: 1.4
- ALP [3]: 831.8 IU/L
- ALT [3]: 41.6 IU/L
- AST [3]: 75.6 IU/L
- BUN [3]: 13.4 mg/dL
- CRE [3]: 0.4 mg/dL
- Ca [3]: 10.6 mg/dL
- Cl [3]: 104 meq/L
- DBIL [3]: 0.086 mg/dL
- GLC [3]: 194 mg/dL
- IP [3]: 7.4 mg/dL
- K [3]: 4.1 meq/L
- LDH [3]: 210.2 IU/L
- Na [3]: 141.2 meq/L
- PL [3]: 136 mg/dL
- RALB [3]: 3.2 g/dL
- TBIL [3]: 0.1 mg/dL
- TC [3]: 70.6 mg/dL
- TG [3]: 93 mg/dL
- TP [3]: 5.5 g/dL
- gamma-GTP [3]: 1.2 IU/L
- A/G [1]: 1.2
- ALP [1]: 815.8 IU/L
- ALT [1]: 31.6 IU/L
- AST [1]: 79 IU/L
- BUN [1]: 21.8 mg/dL
- CRE [1]: 0.5 mg/dL
- Ca [1]: 10.3 mg/dL
- Cl [1]: 104.6 meq/L
- DBIL [1]: 0.086 mg/dL
- GLC [1]: 189.6 mg/dL
- IP [1]: 7.1 mg/dL
- K [1]: 4 meq/L
- LDH [1]: 225 IU/L
- Na [1]: 141.8 meq/L
- PL [1]: 131.2 mg/dL
- RALB [1]: 2.9 g/dL
- TBIL [1]: 0.1 mg/dL
- TC [1]: 65.6 mg/dL
- TG [1]: 106.2 mg/dL
- TP [1]: 5.3 g/dL
- gamma-GTP [1]: 2 IU/L
- A/G [2]: 1.3
- ALP [2]: 589.2 IU/L
- ALT [2]: 31.8 IU/L
- AST [2]: 76.2 IU/L
- BUN [2]: 19 mg/dL
- CRE [2]: 0.5 mg/dL
- Ca [2]: 10.2 mg/dL
- Cl [2]: 104 meq/L
- DBIL [2]: 0.0925 mg/dL
- GLC [2]: 206.5 mg/dL
- IP [2]: 6.3 mg/dL
- K [2]: 3.8 meq/L
- LDH [2]: 194.2 IU/L
- Na [2]: 141.8 meq/L
- PL [2]: 142.8 mg/dL
- RALB [2]: 3.3 g/dL
- TBIL [2]: 0.2 mg/dL
- TC [2]: 69.8 mg/dL
- TG [2]: 150.2 mg/dL
- TP [2]: 5.8 g/dL
- gamma-GTP [2]: 1.5 IU/L
- TERMINAL_BW [4]: 235 g
- APTT [4]: 18.3 s
- Bas [4]: 0.8%
- Eos [4]: 0.6%
- Fbg [4]: 354.8 mg/dL
- Hb [4]: 11.6 g/dL
- Ht [4]: 35.4%
- Lym [4]: 56.8%
- MCH [4]: 20.5 pg
- MCHC [4]: 32.9%
- MCV [4]: 62.4 fL
- Mono [4]: 6%
- Neu [4]: 29.2%
- PT [4]: 11.4 s
- Plat [4]: 121.4 x10_4/uL
- RBC [4]: 568.2 x10_4/ul
- Ret [4]: 6.5%
- WBC [4]: 164.3 x10_2/uL
- KIDNEY_L [4]: 1.2 g
- KIDNEY_R [4]: 1.1 g
- KIDNEY_TOTAL [4]: 2.3 g
- LIVER [4]: 12 g
- A/G [4]: 0.9
- ALP [4]: 648.6 IU/L
- ALT [4]: 30 IU/L
- AST [4]: 57.4 IU/L
- BUN [4]: 12.4 mg/dL
- CRE [4]: 0.4 mg/dL
- Ca [4]: 10.5 mg/dL
- Cl [4]: 103.8 meq/L
- DBIL [4]: 0.07 mg/dL
- GLC [4]: 194 mg/dL
- IP [4]: 8 mg/dL
- K [4]: 4.4 meq/L
- LDH [4]: 163 IU/L
- Na [4]: 140.8 meq/L
- PL [4]: 142.8 mg/dL
- RALB [4]: 2.4 g/dL
- TBIL [4]: 0.1 mg/dL
- TC [4]: 70.8 mg/dL
- TG [4]: 131.6 mg/dL
- TP [4]: 4.9 g/dL
- gamma-GTP [4]: 1.4 IU/L
- TERMINAL_BW [5]: 246.6 g
- APTT [5]: 18 s
- Bas [5]: 1%
- Eos [5]: 1%
- Fbg [5]: 362 mg/dL
- Hb [5]: 10.9 g/dL
- Ht [5]: 32.8%
- Lym [5]: 56%
- MCH [5]: 20.2 pg
- MCHC [5]: 33.2%
- MCV [5]: 61 fL
- Mono [5]: 4.7%
- Neu [5]: 36.3%
- PT [5]: 11.1 s
- Plat [5]: 232.1 x10_4/uL
- RBC [5]: 537.7 x10_4/ul
- Ret [5]: 6%
- WBC [5]: 243.6 x10_2/uL
- KIDNEY_L [5]: 1.2 g
- KIDNEY_R [5]: 1.2 g
- KIDNEY_TOTAL [5]: 2.3 g
- LIVER [5]: 11.3 g
- A/G [5]: 0.8
- ALP [5]: 606 IU/L
- ALT [5]: 23.7 IU/L
- AST [5]: 58.3 IU/L
- BUN [5]: 9 mg/dL
- CRE [5]: 0.4 mg/dL
- Ca [5]: 10.3 mg/dL
- Cl [5]: 105.3 meq/L
- DBIL [5]: 0.0567 mg/dL
- GLC [5]: 176 mg/dL
- IP [5]: 7.7 mg/dL
- K [5]: 4.3 meq/L
- LDH [5]: 206.7 IU/L
- Na [5]: 141.3 meq/L
- PL [5]: 147 mg/dL
- RALB [5]: 2.4 g/dL
- TBIL [5]: 0.1 mg/dL
- TC [5]: 73.3 mg/dL
- TG [5]: 114.7 mg/dL
- TP [5]: 5.3 g/dL
- gamma-GTP [5]: 2 IU/L
- GLC [6]: 178 mg/dL
- gamma-GTP [6]: 1 IU/L
